Data published in US20210221785A1, “AMINO-PYRIMIDONYL DERIVATIVES, A PROCESS FOR THEIR PREPARATION AND PHARMACEUTICAL COMPOSITIONS CONTAINING THEM” (LES LABORATOIRES SERVIER, priority 2018, published 2021).

Experiments:
[1] = system: Z138 mantle cell lymphoma tumour cell lines; experiment: In vitro cytotoxicity, MTT assay; format: cell-based; conditions: Z138 cells exposed to the test compounds for 96 hours, cell viability vs DMSO treated cells
Outline: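 Z138 cells exposed to compounds for 96 hours, then MTT added for 4 hours. Viable cells quantified from formazan absorbance at 540 nm.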

[2] = molecular target: T1, His-His-USP7 (aa208-560, |C315A|) (Homo sapiens, UniProt Q93009, C315A); experiment: Evaluation of the inhibition of USP7 by the Fluorescence Intensity (FLINT) readings; format: biochemical; conditions: 0.25 nM His-His-USP7, compound incubated 60 minutes at 30° C., 500 nM Ubiquitin-Rhodamine-110 substrate; 50% reduction in kinetic rate
T1 construct: His-His-USP7 (aa208-560, |C315A|); His-His (N)
T1 sequence (Q93009 208-560 C315A): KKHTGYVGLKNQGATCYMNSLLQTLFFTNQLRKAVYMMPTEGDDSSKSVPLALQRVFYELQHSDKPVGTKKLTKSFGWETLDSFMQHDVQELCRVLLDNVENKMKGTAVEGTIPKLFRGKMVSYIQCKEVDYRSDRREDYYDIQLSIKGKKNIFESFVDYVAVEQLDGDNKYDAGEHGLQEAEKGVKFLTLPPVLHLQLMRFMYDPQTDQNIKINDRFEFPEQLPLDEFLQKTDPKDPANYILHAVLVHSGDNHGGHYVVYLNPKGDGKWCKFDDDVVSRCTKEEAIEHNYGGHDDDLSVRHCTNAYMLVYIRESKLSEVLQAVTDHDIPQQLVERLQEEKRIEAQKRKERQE
Outline: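 IC50 reflects 50% reduction in kinetic rate of rhodamine-110 release (Ex485/Em535, reads every 3 min over 21 min), normalised to DMSO and no-enzyme controls, from an 11-point 4-parameter fit. Substrate is 500 nM Ub-Rh110, added after 60 min, 30 °C preincubation of compound with 0.25 nM USP7 aa208–560 C315A. Buffer is Bicine pH 8.0 with 10% DMSO.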

SMILES	IC50 [2] [nM]	IC50 ([1]; Homo sapiens, Z-138, 96 h) [µM]	IC50 [1] [µM]
Nc1c(Oc2ccc(F)cc2)ncn(CC2(O)CCN(C(=O)[C@@H]3CCC(F)(F)C[C@H]3c3ccccc3)CC2(F)F)c1=O (stereo partly drawn) [Example 45, 5-amino-3-({1-[(1R,2R)-4,4-difluoro-2-phenylcyclohexane-1-carbonyl]-3,3-difluoro-4-hydroxypiperidin-4-yl}methyl)-6-(4-fluorophenoxy)pyrimidin-4(3H)-one]	57	0.115	–
Nc1c(Oc2ccc3c(c2)CC(O)C3)ncn(CC2(O)CCN(C(=O)[C@@H]3CCC(F)(F)C[C@H]3c3ccccc3)CC2)c1=O (stereo partly drawn) [Example 48, 5-amino-3-({1-[(1R,2R)-4,4-difluoro-2-phenylcyclohexane-1-carbonyl]-4-hydroxypiperidin-4-yl}methyl)-6-[(2-hydroxy-2,3-dihydro-1H-inden-5-yl)oxy]pyrimidin-4(3H)-one]	62	0.072	–
CCC(N)c1ccc(Oc2ncn(CC3(O)CCN(C(=O)[C@@H]4CCC(F)(F)C[C@H]4c4ccccc4)CC3)c(=O)c2N)cc1 (stereo partly drawn) [Example 56, 5-amino-6-[4-(1-aminopropyl)phenoxy]-3-({1-[(1R,2R)-4,4-difluoro-2-phenylcyclohexane-1-carbonyl]-4-hydroxypiperidin-4-yl}methyl)pyrimidin-4(3H)-one]	15	0.539	–
NCc1ccc(Oc2ncn(CC3(O)CCN(C(=O)[C@@H]4CCC(F)(F)C[C@H]4c4ccccc4)CC3)c(=O)c2N)cc1 [Example 59, 5-amino-6-[4-(aminomethyl)phenoxy]-3-({1-[(1R,2R)-4,4-difluoro-2-phenylcyclohexane-1-carbonyl]-4-hydroxypiperidin-4-yl}methyl)pyrimidin-4(3H)-one]	4.2	0.064	–
NCc1cccc(Oc2ncn(CC3(O)CCN(C(=O)[C@@H]4CCC(F)(F)C[C@H]4c4ccccc4)CC3)c(=O)c2N)c1 [Example 61, 5-amino-6-[3-(aminomethyl)phenoxy]-3-({1-[(1R,2R)-4,4-difluoro-2-phenylcyclohexane-1-carbonyl]-4-hydroxypiperidin-4-hydroxypiperidin-4-yl}methyl)pyrimidin-4(3H)-one]	9.8	0.028	–
Nc1c(Oc2cccc(O)c2)ncn(CC2(O)CCN(C(=O)[C@@H]3CCC(F)(F)C[C@H]3c3ccccc3)CC2)c1=O [Example 64, 5-amino-3-({1-[(1R,2R)-4,4-difluoro-2-phenylcyclohexnne-1-carbonyl]-4-hydroxypiperidin-4-yl}methyl)-6-(3-hydroxyphenoxy)pyrimidin-4(3H)-one]	21	0.014	–
NCc1ccc(Oc2ncn(CC3(O)CCN(C(=O)[C@@H]4CCC(F)(F)C[C@H]4c4ccccc4)CC3)c(=O)c2N)cc1F [Example 65, 5-amino-6-[4-(aminomethyl)-3-fluorophenoxy]-3-({1-[(1R,2R)-4,4-difluoro-2-phenylcyclohexane-1-carbonyl]-4-hydroxypiperidin-4-yl}methyl)pyrimidin-4(3H)-one]	10	0.386	–
NCc1ccc(Oc2ncn(CC3(O)CCN(C(=O)[C@@H]4CCC(F)(F)C[C@H]4c4ccccc4)CC3)c(=O)c2N)cc1Cl [Example 66, 5-amino-6-[4-(aminomethyl)-3-chlorophenoxy]-3-({1-[(1R,2R)-4,4-difluoro-2-phenylcyclohexane-1-carbonyl]-4-hydroxypiperidin-4-yl}methyl)pyrimidin-4(3H)-one]	11	0.301	–
NC(=O)CCc1ccc(Oc2ncn(CC3(O)CCN(C(=O)[C@@H]4CCC(F)(F)C[C@H]4c4ccccc4)CC3)c(=O)c2N)cc1 [Example 67, 3-(4-{[5-amino-1-({1-[(1R,2R)-4,4-difluoro-2-phenylcyclohexane-1-carbonyl]-4-hydroxypiperidin-4-yl}methyl)-6-oxo-1,6-dihydropyrimidin-4-yl]oxy}phenyl)propanamide]	75	0.668	–
NCCCc1ccc(Oc2ncn(CC3(O)CCN(C(=O)[C@@H]4CCC(F)(F)C[C@H]4c4ccccc4)CC3)c(=O)c2N)cc1 [Example 68, 5-amino-6-[4-(3-aminopropyl)phenoxy]-3-([1-[(1R,2R)-4,4-difluoro-2-phenylcyclohexane-1-carbonyl]-4-hydroxypiperidin-4-yl]methyl)pyrimidin-4(3H)-one]	39	0.454	–
Nc1c(Oc2ccc(CNCC(F)(F)F)cc2)ncn(CC2(O)CCN(C(=O)[C@@H]3CCC(F)(F)C[C@H]3c3ccccc3)CC2)c1=O [Example 73, 5-amino-3-({1-[(1R,2R)-4,4-difluoro-2-phenylcyclohexane-1-carbonyl]-4-hydroxypiperidin-4-yl}methyl)-6-(4-[[(2,2,2-trifluoromethyl)amino]methyl]phenoxy)pyrimidin-4(3H)-one]	113	0.564	–

Now from value to molecule, other results behind:

IC50 [2] [nM]	SMILES	IC50 ([1]; Homo sapiens, Z-138, 96 h) [µM]	IC50 [1] [µM]
10	CC(C)(C)NCc1ccc(Oc2ncn(CC3(O)CCN(C(=O)[C@@H]4CCC(F)(F)C[C@H]4c4ccccc4)CC3)c(=O)c2N)cc1 [Example 75, 5-amino-6-{4-[(tert-butylamino)methyl]phenoxy}-3-({1-[(1R,2R)-4,4-difluoro-2-phenylcyclohexane-1-carbonyl]-4-hydroxypiperidin-4-yl}methyl)pyrimidin-4(3H)-one]	0.184	–
15	Nc1c(Oc2ccc(CNCc3ccccc3)cc2)ncn(CC2(O)CCN(C(=O)[C@@H]3CCC(F)(F)C[C@H]3c3ccccc3)CC2)c1=O [Example 76, 5-amino-6-{4-[(benzylamino)methyl]phenoxy}-3-({1-[(1R,2R)-4,4-difluoro-2-phenylcyclohexane-1-carbonyl]-4-hydroxypiperidin-4-yl}methyl)pyrimidin-4(3H)-one]	0.4	–
25	Nc1c(Oc2ccc(CNC3CC3)cc2)ncn(CC2(O)CCN(C(=O)[C@@H]3CCC(F)(F)C[C@H]3c3ccccc3)CC2)c1=O [Example 77]	0.156	–
57.5	Nc1c(Oc2ccc(F)cc2)ncn(C[C@@]2(O)CCN(C(=O)[C@@H]3CCC(F)(F)C[C@H]3c3ccccc3)CC2(F)F)c1=O [Example 78, 5-amino-3-({(4S)-1-[(1R,2R)-4,4-difluoro-2-phenylcyclohexane-1-carbonyl]-3,3-difluoro-4-hydroxypiperidin-4-yl}methyl)-6-(4-fluorophenoxy)pyrimidin-4(3H)-one]	0.115	–
90.3	Nc1c(Oc2ccccc2)ncn(CC2(O)CCN(C(=O)[C@@H]3CC(F)(F)CC[C@H]3c3ccccc3)CC2)c1=O [Example 82, 5-amino-3-({1-[(1R,2R)-5,5-difluoro-2-phenylcyclohexane-1-carbonyl]-4-hydroxypiperidin-4-yl}methyl)-6-phenoxypyrimidin-4(3H)-one]	0.18	–
220	Nc1c(Oc2ccccc2)ncn(CC2(O)CCN(C(=O)[C@@H]3CCC(F)(F)C[C@H]3n3cccc3)CC2)c1=O [Example 83, 5-amino-3-({1-[(1R,2R)-4,4-difluoro-2-(1H-pyrrol-1-yl)cyclohexane-1-carbonyl]-4-hydroxypiperidin-4-yl}methyl)-6-phenoxypyrimidin-4(3H)-one]	0.327	–
92	Nc1c(Oc2ccc(F)cc2)ncn(CC2(O)CCN(C(=O)[C@@H]3CCC(F)(F)C[C@H]3c3ccsc3)CC2)c1=O [Example 89, 5-amino-3-({1-[(1R,2R)-4,4-difluoro-2-(thiophen-3-yl)cyclohexane-1-carbonyl]-4-hydroxypiperidin-4-yl}methyl)-6-(4-fluorophenoxy)pyrimidin-4(3H)-one]	0.055	–
3.9	NCc1ccc(Oc2ncn(C[C@@]3(O)CCN(C(=O)[C@@H]4CCC(F)(F)C[C@H]4c4ccccc4)CC3(F)F)c(=O)c2N)cc1 [Example 90, 5-amino-6-[4-(aminomethyl)phenoxy]-3-({(4S)-1-[(1R,2R)-4,4-difluoro-2-phenylcyclohexane-1-carbonyl]-3,3-difluoro-4-hydroxypiperidin-4-yl}methyl)pyrimidin-4(3H)-one]	0.16	–
41	Nc1c(Oc2cccc(O)c2)ncn(C[C@@]2(O)CCN(C(=O)[C@@H]3CCC(F)(F)C[C@H]3c3ccccc3)CC2(F)F)c1=O [Example 104, 5-amino-3-({(4S)-1-[(1R,2R)-4,4-difluoro-2-phenylcyclohexane-1-carbonyl]-3,3-difluoro-4-hydroxypiperidin-4-yl}methyl)-6-(3-hydroxyphenoxy)pyrimidin-4(3H)-one]	0.014	–
63.9	CN(C)Cc1ccc(Oc2ncn(CC3(O)CCN(C(=O)[C@@H]4CCC(F)(F)C[C@H]4c4ccccc4)CC3)c(=O)c2N)cc1 [Example 108, 5-amino-3-({1-[(1R,2R)-4,4-difluoro-2-phenylcyclohexane-1-carbonyl]-4-hydroxypiperidin-4-yl}methyl)-6-{4-[(dimethylamino)methyl]phenoxy}pyrimidin-4(3H)-one]	0.654	–
40.3	Nc1c(Oc2ccc(F)c(O)c2)ncn(C[C@@]2(O)CCN(C(=O)[C@@H]3CCC(F)(F)C[C@H]3c3ccccc3)CC2(F)F)c1=O [Example 109, 5-amino-3-({(4S)-1-[(1R,2R)-4,4-fluoro-2-phenylcyclohexane-1-carbonyl]-3,3-difluoro-4-hydroxypiperidin-4-yl}methyl)-6-(4-fluoro-3-hydroxyphenoxy)pyrimidin-4(3H)-one]	–	0.0155
